Patent publication EP0280461A2, “Dobutamine salts” (ELI LILLY AND COMPANY, priority 1987, dated 1988)
Where a name gives a salt, the structure may show the parent alone.

Experiment: aqueous solubility at 25°C
Assay type: physicochemical
Details: water

solubility (room temperature (25°C))	Compound	other results
~25 mg/mL	CC(CCc1ccc(O)cc1)NCCc1ccc(O)c(O)c1 (racemic) [Dobutamine phosphate dibasic, dobutamine phosphate dibasic]	
	CC(CCc1ccc(O)cc1)NCCc1ccc(O)c(O)c1 (racemic) [dobutamine phosphate monobasic]	solubility (at 25°C): ~2000 mg/mL
	CC(CCc1ccc(O)cc1)NCCc1ccc(O)c(O)c1 (stereo not shown) [dobutamine hydrobromide]	aqueous solubility (room temperature (25°C), hydrobromide): about 28 mg per ml of water
28 mg/mL	CC(CCc1ccc(O)cc1)NCCc1ccc(O)c(O)c1 (stereo not shown) [dobutamine hydrochloride]	
